US10350213B2 (AI Therapeutics, Inc., priority 2015, dated 2019)

Tests used:
[1] = system: Raji (Human Burkitt's lymphoma); experiment: CellTiterGlo cell viability assay; type: cell-based
Procedure: (§1) Briefly, test compounds (5 μl stock solution, 6×desired final well concentration) were dispensed to 384-well assay plates, TSC2−/− MEF cells (1000 cells per well in 25 μL of media) were added to the plates and the plates were incubated for 72 h (3 days) at 37° C. under an atmosphere of 5% CO2 in a humidified incubator for 3 days. Cell viability was determined with CellTiter-Glo® luminescence assay (Promega) per the manufacturer's instructions. Viability was expressed as a percentage of untreated control cells.
(§2) 35 cell lines were identified as sensitive to apilimod-induced cytotoxicity in this assay. The apilimod-sensitive cells included cells derived from several different cancers including non-Hodgkin's lymphoma, Hodgkin's lymphoma, colorectal cancer, and lung cancer. The most sensitive of those tested were non-Hodgkin's Lymphoma (NHL) cell lines. […] The only NHL subtype not sensitive in this assay was follicular.

[2] = system: KG-1 (Human acute myelogenous leukemia); experiment: CellTiterGlo cell viability assay; type: cell-based
Procedure: as §1, §2

[3] = system: GA-10 (Human Burkitt's lymphoma); experiment: CellTiterGlo cell viability assay; type: cell-based
Procedure: as §1, §2

[4] = system: COLO-320DM (Human Colorectal); experiment: CellTiterGlo cell viability assay; type: cell-based
Procedure: as §1, §2

[5] = system: NCI-1975 (Human lung carcinoma); experiment: CellTiterGlo cell viability assay; type: cell-based
Procedure: as §1, §2

SW620 (Human Colorectal) = experiment: CellTiterGlo cell viability assay; type: cell-based; conditions: SW-620
Procedure: as §1, §2

[6] = system: L428 (Human Hodgkin's lymphoma); experiment: CellTiterGlo cell viability assay; type: cell-based; conditions: L-428
Procedure: as §1, §2

[7] = system: SUDHL-6 (Human Diffuse Large B Cell Lymphoma -GCB); experiment: CellTiterGlo cell viability assay; type: cell-based; conditions: SU-DHL-6, Human DLBCL-GCB
Procedure: as §1, §2

[8] = system: HD-MyZ (Human Hodgkin's lymphoma); experiment: CellTiterGlo cell viability assay; type: cell-based
Procedure: as §1, §2

[9] = system: SUDHL-1 (Human Anaplastic Large Cell Lymphoma); experiment: CellTiterGlo cell viability assay; type: cell-based; conditions: SU-DHL-1
Procedure: as §1, §2

[10] = system: NCI-H1666 (Human bronchioalveolar); experiment: CellTiterGlo cell viability assay; type: cell-based
Procedure: as §1, §2

[11] = system: CA46 (Human Burkitt's lymphoma); experiment: CellTiterGlo cell viability assay; type: cell-based
Procedure: as §1, §2

[12] = system: Rec-1 (Human Mantle Cell Lymphoma); experiment: CellTiterGlo cell viability assay; type: cell-based; conditions: Rec1
Procedure: as §1, §2

[13] = system: Pfeiffer (Human Diffuse Large B Cell Lymphoma -GCB); experiment: CellTiterGlo cell viability assay; type: cell-based; conditions: Human DLBCL-GCB
Procedure: as §1, §2

[14] = system: HCT-15 (Human Colorectal); experiment: CellTiterGlo cell viability assay; type: cell-based
Procedure: as §1, §2

[15] = system: L540 (Human Hodgkin's lymphoma); experiment: CellTiterGlo cell viability assay; type: cell-based; conditions: L-540
Procedure: as §1, §2

[16] = system: HCT116 (Human colorectal cancer); experiment: CellTiterGlo cell viability assay; type: cell-based; conditions: HCT-116
Procedure: as §1, §2

[17] = system: HH (Human T-cell lymphoma); experiment: CellTiterGlo cell viability assay; type: cell-based
Procedure: as §1, §2

[18] = system: H1693 (Human lung carcinoma); experiment: CellTiterGlo cell viability assay; type: cell-based; conditions: NCI-H1693
Procedure: as §1, §2

[19] = system: RL (Human Follicular B Cell Lymphoma); experiment: CellTiterGlo cell viability assay; type: cell-based
Procedure: as §1, §2

[20] = system: SW1116 (Human colorectal cancer); experiment: CellTiterGlo cell viability assay; type: cell-based; conditions: SW 1116
Procedure: as §1, §2

[21] = system: H358 (Human lung carcinoma); experiment: CellTiterGlo cell viability assay; type: cell-based; conditions: NCI-H358
[22] = system: 22RV1 (Human prostate cancer); experiment: CellTiterGlo cell viability assay; type: cell-based
H4 (Human neuroglioma) = experiment: CellTiterGlo cell viability assay; type: cell-based
[23] = system: A549 (Human lung carcinoma); experiment: CellTiterGlo cell viability assay; type: cell-based
[24] = system: non-cancer (normal) cells; experiment: Cell viability assay, non-cancer (normal) cells; type: cell-based
Description: (§3) This is exemplified in FIG. 2A for the HCT116 colorectal carcinoma cells. […] And all NHL subtypes were sensitive in this assay, including mantle, follicular, Burkitt's, DLBCL-ABC, DLBCL-GCB, and double-hit DLBCL.

[25] = system: MiaPaCa-2 (Human pancreatic cancer); experiment: CellTiterGlo cell viability assay; type: cell-based; conditions: MIA PaCa-2
[26] = active Crohn's disease; Sands et al. 2010; cited from earlier work
[27] = system: non-Hodgkin's Lymphoma (NHL) cell lines; experiment: 3-day CellTiterGlo assay, NHL cell lines; type: cell-based, human; conditions: sensitive if IC50 less than 500 nM; 3-day assay
Description: as §2

[28] = system: CAPAN2 (Human pancreatic cancer); experiment: CellTiterGlo cell viability assay; type: cell-based; conditions: Capan-2
TOV-21G (Human ovarian) = experiment: CellTiterGlo cell viability assay; type: cell-based; conditions: TOV21G
[29] = system: 456 kinases (PIKfyve not included); experiment: Kinase panel binding screen (DiscoveRx); conditions: screening concentration 1 μM
Description: Next, apilimod was screened against a comprehensive panel of kinases (PIKfyve not included).

all cell lines = experiment: Longer cell viability assays (3, 5, and 7 days); type: cell-based; conditions: 168 h, 7-day exposure
Description: as §3

Cc1cccc(/C=N/Nc2cc(N3CCOCC3)nc(OCCc3ccccn3)n2)c1 [apilimod]
IC50 [1]: > 10000 nM | IC50 [2]: > 2500 nM | IC50 [3]: 382 nM | IC50 [4]: 2060 nM | IC50 [5]: > 10000 nM | IC50 (SW620 (Human Colorectal)): 90 nM | IC50 [6]: 10000 nM | IC50 [7]: 80 nM | IC50 [8]: > 1000 nM | IC50 [9]: 590 nM | IC50 [10]: 20000 nM | IC50 [11]: > 10000 nM | IC50 [12]: 300 nM | IC50 [13]: 2620 nM | IC50 [14]: 200 nM | IC50 [15]: > 1000 nM | IC50 [16]: 125 nM | IC50 [17]: 3300 nM | IC50 [18]: 2000 nM | IC50 [19]: > 10000 nM | IC50 [20]: 1500 nM | IC50 [21]: > 2000 nM | IC50 [22]: > 5000 nM | IC50 (H4 (Human neuroglioma)): 250 nM | IC50 [23]: 110 nM | IC50 [24]: 15800 nM | IC50 [25]: > 2000 nM | efficacy over placebo [26]: did not demonstrate efficacy over placebo | tolerability [26]: well tolerated | share of NHL cell lines sensitive to apilimod [27]: over 50% | IC50 [28]: > 2000 nM | IC50 (TOV-21G (Human ovarian)): 7000 nM | binding to kinase panel [29]: did not bind to any of the 456 kinases tested | IC50 (all cell lines): < 125 nM
